Experiments:
[1] = system: bacterial morphotypes isolated from biopsies of CD patients; experiment: Aggregation to EB8018 of bacterial morphotypes isolated from MOBIDIC ileal biopsies; assay type: cell-based; settings: 106 CD patients with conclusive biopsy results; 10 nM/100 nM/1 μM EB8018
Procedure: Mucosal specimens, isolated from CD patients have been collected from the MOBIDIC study. For each patient, 4 biopsies were collected, 2 or 3 for further investigations and 1 or 2 as back-up sample stored at Cell&Co (Clermont-Ferrand, France). The ileal specimens were introduced immediately into preweighed vials containing 1.8 mL of refrigerated DMEM with 15% glycerol. The vials were weighed to establish the weight of sample. Ideally, the size of the biopsies must be between 5 and 10 mg. After being frozen at −80° C., vials were sent to Cell&Co and stored at −80° C. upon receipt.
On day 1, biopsies were processed to retrieve adherent bacteria (extract A) and invasive bacteria (extract I). […]
Extracts A and I were cultivated in LB broth for 2×24 hours and on day 3, the LB overnight cultures were used for aggregation assays with EB8018 compound. […] Every hour, bacterial growth was measured and a picture of each well was taken using a SPARK10M. After 5 hours, the microplate was shacked and 10 min after, a picture was taken for aggregation assessment (aggregation was evaluated by a technician with comparison with DMSO). […]
When no aggregation was observed on extracts or in case of inconclusive evaluation (for example with observation of aggregation with the DMSO without any compound), a second biopsy was analysed following the same protocol. […]

isolated E. coli strains = experiment: Aggregation assay with EB8018 on the collection of isolated bacterial strains; assay type: cell-based, Escherichia coli
From the text: 110 E. coli strains from La Girona University (Margarita Medina-Martinez Lab-Girona-Spain) and Cornell (Kenneth Simpson Lab—Ithaca—USA) have been made available through MTA. These isolated strains had been previously extracted from the stool or ileal/colonic biopsies of IBD patients or controls and had been characterised for their AIEC phenotype (for Cornell strains see Dogan B. et al., 2014; Baumgart M. et al., 2007, summarized in the Appendix). Those 110 strains have been sent to SMALTIS (Besangon, France) who is in charge of all laboratory work. An additional 3 non E. coli strains have been ordered as well as LF82 and LF82 deltaFimH that serve as respectively positive and negative controls.
(§1) Three days before aggregation assays, bacterial strains were defrosted on TSA (Tryptone Soya Agar) plates. A first overnight culture was performed by inoculation of 3 mL of LB broth with a single colony of bacteria followed by a second overnight culture (1 mL of the first culture+4 mL LB broth).
(§2) Six concentrations of EB8018 (sample SP-0010269-017 produced by China Gateway) were tested in the aggregation assays (1 nM/10 nM/100 nM/1 μM/10 μM and 100 μM), 500× working solutions were prepared in pure DMSO by 10-fold serial dilutions from a 100 mM stock solution (65 mg EB8018+1 mL DMSO; MEB8018:649.68 g/mol). The 500× working solutions (1 μM, 10 μM, 100 μM, 1 mM, 10 mM and 100 mM) were split into aliquots and stored at −20° C., until use.
(§3) On the day of the test, an aliquot of each EB8018 500× working solution (1 μM, 10 μM, 100 μM, 1 mM, 10 mM and 100 mM) was defrosted and diluted twice in LB medium (1:20 for the first dilution and 1:25 for the second dilution) to obtain respectively six 2× working solutions (2 nM, 20 nM, 200 nM, 2 μM, 20 μM and 200 μM). The second overnight bacterial cultures were diluted in LB medium (50-fold dilution). […] Every hour, each well was observed and the starting time of aggregation was recorded. […] For each concentration and each time point, aggregation was evaluated by a technician. […]

LF82-ΔFimH = experiment: Aggregation assay with EB8018 on negative control strain LF82-ΔFimH; assay type: cell-based, Escherichia coli; settings: whatever the concentration tested and whatever the time of incubation
Procedure: as §1, §2, §3

LF82 = experiment: Aggregation assay with EB8018 on positive control strain LF82; assay type: cell-based, Escherichia coli
Procedure: as §1, §2
On the day of the test, an aliquot of each EB8018 500× working solution (1 μM, 10 μM, 100 μM, 1 mM, 10 mM and 100 mM) was defrosted and diluted twice in LB medium (1:20 for the first dilution and 1:25 for the second dilution) to obtain respectively six 2× working solutions (2 nM, 20 nM, 200 nM, 2 μM, 20 μM and 200 μM). The second overnight bacterial cultures were diluted in LB medium (50-fold dilution). Fifty μL of these bacteria dilutions were dispensed into 96-well plates (8 wells/strain). Fifty μL of the EB8018 2× working solutions or fresh LB or LB with 0.2% DMSO were added to the wells. Microplates were incubated for 5 hours at 37° C. under constant shaking (200 rpm). Every hour, each well was observed and the starting time of aggregation was recorded. After 5 hours of incubation, a picture was taken only in wells where an aggregation was observed. For each concentration and each time point, aggregation was evaluated by a technician.
This protocol was applied to the 113 isolated bacterial strains. On each plate, a positive control (LF82) and a negative control (LF82-ΔFimH) were used.

AIEC [2] = settings: Bouckaert et al., 2005, 2013; cited from earlier work
cystitis murine model = settings: Wellens et al., 2008; cited from earlier work
AIEC [3] = settings: CEABAC 10 Crohn's disease model; Sivignon 2015; cited from earlier work

Row | Compound | share of patients with at least one morphotype that aggregated [1] [%] | share of patients with no aggregation [1] [%] | share of analyzable strains classified on the grey zone (low aggregation) (isolated E. coli strains; 6 concentrations, every hour for 5 hours) [%] | share of analyzable strains that did not aggregate (isolated E. coli strains; all results negative across 6 concentrations and 5 hours) [%] | share of analyzable strains that did aggregate (isolated E. coli strains; at least one + or +/− across 6 concentrations and 5 hours) [%] | aggregation (LF82-ΔFimH) | level of aggregation (LF82; LF82, 1 nM EB8018, after 5 h of incubation) | level of aggregation (LF82; LF82, 10 nM EB8018, after 5 h of incubation) | level of aggregation (LF82; LF82, 100 nM EB8018, after 5 h of incubation) | level of aggregation (LF82; LF82, 1 μM EB8018, after 5 h of incubation) | starting time of aggregation (LF82; LF82 positive control, incubation at 37° C.) [h] | in vitro AIEC adhesion inhibition (AIEC [2]) | concentration required for a significant bacterial load reduction (cystitis murine model) | effect with AIEC (AIEC [3])
1 | CC(=O)N1CCC2(CC1)c1cc(C#C[C@H]3O[C@H](CO)[C@@H](O)[C@H](O)[C@@H]3O)ccc1-c1ccc(C#C[C@H]3O[C@H](CO)[C@@H](O)[C@H](O)[C@@H]3O)cc12 [EB8018, 1-(2,7-bis(((2R,3S,4R,5S,6R)-3,4,5-trihydroxy-6-(hydroxylmethyl)tetrahydro-2H-pyran-2-yl)ethynyl)spiro[fluorene-9,4′-piperidin]-1′-yl)ethan-1-one] | 65 | 15 | 13 | 44 | 42 | did not aggregate | strong aggregation | strong aggregation | strong aggregation | moderate aggregation | 2 |  |  | 
2 | CCCCCCCO[C@H]1O[C@H](CO)[C@@H](O)[C@H](O)[C@@H]1O [Heptylmannose] |  |  |  |  |  |  |  |  |  |  |  | potent | millimolar concentrations are required | no effect
